From US20050054629A1, “Compounds and methods of treating cell proliferative diseases” (priority 2002, published 2005)

Columns and labels:
Type in all cases: cell-based, human
MDA-MB-231 cells = experiment: Migration assay (Fluoroblock inserts), Example 32; settings: 16 hours
Experimental: FIG. 10: Migration of MDA-MB-231 cells in the presence of various concentrations of L651582, and EHT 0823. 5 10^4 MDA-MB-231 cells, resuspended in culture medium with or without Fetal Bovine Serum (FBS), were seeded in the upper Boyden blind well on top of 8 μm pore-sized filters. The ability of cells to migrate through the filter was assayed in the absence or presence of FBS in the lower Boyden well. After incubation at 37° C. for 16 hours, the medium was removed and replaced with calcein containing medium. After labelling, cells were washed and resuspended in HBSS and fluorescence was read in a fluoroskan. Fluorescence values were normalized against the fluorescence obtained for the 1% DMSO control. The data plotted are the means±SEM for 2 wells under the different conditions.
An essential characteristic of malignant cells is their ability to migrate, invade host tissues and to produce metastases. In order to evaluate the capacity of one compound to affect the ability of tumoral cells to migrate, migration assays were performed using highly invasive tumoral cells MDA-MB-231. This assay was performed using Falcon HTS Fluoroblock inserts. Culture medium containing Fetal Bovine Serum (FBS; which is used as a chemoattractant) was added to the plate wells and 2 10^4 MDA-MB-231 cells resuspended in medium without FBS and with 0.1% BSA were added to each insert well. The compound of interest was added to the medium in both the upper and the lower chambers. Plate were incubated for 16 hours at 37° C. Following incubation, the medium was removed from the upper chamber and the entire insert plate was transferred to a second 24-well plate containing 4 μg/ml Calcein-AM in medium containing 0.1% BSA. The plates were incubated for one hour at 37° C., rinsed with Hanks Buffered Saline (HBSS). Fluorescence data were collected using Fluoroskan Ascent FL fluorescence plate reader at an excitation wavelength (Ex) of 485 nm and emission wavelength (Em) of 517 nm. Only those labelled cells that passed through the Matrigel layer and the membrane were detected. Data were analyzed using the GraphPad Prism software.

HCT116 = experiment: Cell viability assay (MTT), Example 32; settings: Homo sapiens, HCT-116, 144 h; day 6, 10% FBS
Experimental: FIG. 7: Antiproliferative effect of compounds on HCT116 (top) and MDA-MB-231 (bottom) cell lines measured by MTT viability assay. 2.5 10^3 (HCT116) or 7.5 10^3 (MDA-MB-231) cells were seeded in 48-well plates in growth medium containing 10% FBS, with or without various concentrations of test compounds. Cell cultures were fed every 3 days with the appropriate media. Cell viability was determined on day 6. Data were analyzed and IC50s were calculated from the dose-response curves using GraphPad Prism.
In order to determine one compound effect on cell viability, microculture tetrazolium assay (MTT) was performed as described by Carmichael et al., (1996) with modifications. Four human tumoral cell lines, namely HCT116 colon adenocarcinoma, H460 lung carcinoma, MCF-7 and MDA-MB-231 breast carcinoma cell lines, and 3 immortalized but non tumorigenic cell lines, namely NIH3T3 mouse fibroblasts and human breast-derived MCF10-A and human lung-derived MRC-5 were purchased at ATCC and cultured according to their recommendations. Briefly, 2.5 10^3 to 2 10^4 cells per well were seeded in 48-well plates 24 hours before drug addition. Cells were treated with 0 to 200 μM (11 concentrations) of compound solubilized in DMSO, adjusting the final concentration of DMSO to 1% in the well. Six days after treatment, the medium was replaced by PBS containing 0.5 mg/ml MTT (Sigma) and cells were incubated for 1-3 hours at 37° C. before solubilization of formazan crystals in 100% DMSO. Absorbance was measured using a spectrophotometer at a wavelength of 550 nm. Data was analyzed using the GraphPad Prism software (GraphPad Software, Inc., San Diego, USA), and IC50 (dose leading to 50% cell death) was calculated from the dose-response curves.

HCT116 cells = experiment: Anchorage-independent cell growth assay in soft agar, Example 32
Experimental: FIG. 8: Effect of the treatment of HCT116 cells with the compounds on the size of the clones grown in soft agar. 5 10^3 cells were seeded in 24-well plates in 0.3% agar-containing medium supplemented with the designated amount of compounds. After 7 days of incubation at 37° C., pictures were taken of each well and were analyzed using the ImageJ image analysis software. In particular, clone size and number were calculated. The data were analyzed using GraphPad Prism, and IC50 was calculated.
In order to evaluate the effect of one compound on the capacity of tumour cells to grow without anchorage, HCT116 cells were seeded in soft agar. In contrast to microplate assays which average the drug's effects over an entire cell population, clonogenic assays offer the possibility of distinguishing cytotoxic agents (i.e., decreased colony number) from cytostatic agents (i.e., decreased colony size without decreased colony number; Murphy M. J. et al., 1996).
Briefly, 5 10^3 HCT116 cells were resuspended in 300 pi of complete medium containing 0.3% soft-agar (Difco) and different concentrations of compound (8 concentrations ranging from 0 to 30 μM). Cells were then poured on a solidified layer of medium containing 0.5% of soft agar plus the compound at the same concentration as in the upper layer. Cells were incubated for 7 days' at 37° C. before pictures of each well were taken using a phase contrast microscope (Nikon) and a digital camera (Nikon Coolpix 990). Pictures were subsequently analyzed using a free image analysis software from the NIH (ImageJ) allowing to determine clones size and number.
Data was analyzed using the GraphPad Prism software, and IC50 (dose leading to a 50% decrease of clone size or number) was calculated from dose-response curves. The ratio IC50 clone size/IC50 clone number was then calculated. When this ratio is equal to 1 (IC50 size=IC50 number), the compound is referred to as “cytotoxic”. When the ratio is close to 0 (IC50 size<<IC50 number), the compound is referred to as “cytostatic” (FIG. 6).

| Compound | inhibition of migration of MDA-MB-231 cells (MDA-MB-231 cells; 10 μM compound) | inhibition at 50 µM (MDA-MB-231 cells; Homo sapiens, MDA-MB-231, 50 μM compound) [%] | IC50 (HCT116) [nM] | IC50 anchorage-independent growth of HCT116 (clone size) in soft agar (HCT116 cells; 7 days) | inhibition of migration of MDA-MB-231 cells (MDA-MB-231 cells; 50 μM compound) | inhibition at 10 µM (MDA-MB-231 cells; Homo sapiens, MDA-MB-231, 10 μM compound) [%] | mode of action (cytotoxic vs cytostatic) (HCT116 cells; HCT116 soft agar) | ratio IC50 clone size/IC50 clone number (HCT116 cells; HCT116 soft agar, 7 days) |
| --- | --- | --- | --- | --- | --- | --- | --- | --- |
| O=c1cc(COC2CCCCO2)occ1OCCCCCn1ccc2cc(Cl)ccc21 (centres unmarked) [EHT 0823, 5-[5-(5-Chloro-indol-1-yl)-pentyloxy]-2-(tetrahydro-pyran-2-yloxymethyl)-4H-pyran-4-one] | No significant inhibition | 90 | 1500 to 4000 | micromolar range |  |  |  |  |
| NC(=O)c1nnn(Cc2cc(Cl)c(C(=O)c3ccc(Cl)cc3)c(Cl)c2)c1N [L651582, carboxyamidotriazole, reference compound] |  |  |  |  | Complete inhibition | ~40 | cytostatic | 0.3 |
